Data on seven molecules can be found in patent US5593970A, “Heterocyclic anthracycline analogs” (priority 1994, dated 1997).

Structures are written as SMILES. Structures can show the parent of a compound that is named as a salt. Where two headings read alike, the source gives them in different places.

Experiment in all cases: Microculture tetrazolium assay
Type in all cases: cell-based

The test system of one assay is LOX.
Another assay deals with SKVLB. The settings on record: for VLB/OV3: IC50 ratio SKVLB/SKOV3; for IC50: SKVLB.
The test system of another assay is SKOV3. As to conditions: Homo sapiens, SK-OV-3, SKOV3.
A further assay relates to HT29. The settings on record: Homo sapiens, HT-29, HT29.
For a further assay, the system named is T47D. The settings on record: Homo sapiens.

By IC50 is commonly meant the concentration that inhibits the measured activity by half. Turning to `CC(=O)[C@H]1CC2=C(C(=O)c3cc4ccccc4c(O)c3C2=O)[C@H](O[C@H]2O[C@H](CO)[C@@H](O)[C@H](O)[C@H]2NC(=O)N(CCCl)N=O)O1` [BCH-2039], the IC50 in the assay on LOX came to 1550 nM; in the assay on SKVLB, 81200 nM; with SKOV3 it was 13500 nM; in the assay on HT29, 4430 nM; in the assay on T47D, 12600 nM. Further, the VLB/OV3 in the assay on SKVLB is 6.01.
On to `CC(C)[C@H]1Cc2c(O)c3c(c(O)c2[C@H](O[C@H]2C[C@H](N)[C@H](O)[C@H](C)O2)O1)C(=O)c1ccccc1C3=O` [BCH-2049, (1'S,1S,3R)-5,12-trihydroxy-3-isopropyl-1-(2',3',6'-trideoxy-3'-amino-L-lyxohexopyranose)-1,2,3,4-tetrahydro-(2-oxygen)-naphthacene-6,11-dione-hydrochloride], for which the concentration for half-maximal inhibition (IC50) in the assay with LOX (read-out: IC50) was 102 nM; with SKVLB (read-out: IC50) it was 472 nM; in the assay with SKOV3 (read-out: IC50), 275 nM; in the assay with HT29 (read-out: IC50), 77.3 nM; in the assay on T47D (read-out: IC50), 263 nM. Besides, the VLB/OV3 in the assay on SKVLB is on record as 1.72.
Regarding `CC(C)[C@@H]1Cc2c(O)c3c(c(O)c2[C@@H](O[C@H]2C[C@H](N)[C@H](O)[C@H](C)O2)O1)C(=O)c1ccccc1C3=O` [BCH-2050, (1'S,1R,3S)-5,12-Dixydroxy-3-isopropy-1-(2',3',6'-trideoxy-3'-amino 'L-lyxohexopyranose)-1,2,3,4-tetrahydro-(2-oxygen)-naphtacene-6,11-dione-hydrochloride], the IC50 worked out at 38.4 nM in the assay on LOX (read-out: IC50); 67.2 nM in the assay on SKVLB (read-out: IC50); 70.6 nM in the assay on SKOV3 (read-out: IC50); 304 nM with HT29 (read-out: IC50); 412 nM in the assay with T47D (read-out: IC50). Moreover, the VLB/OV3 in the assay with SKVLB is on record as 0.95.
With `C[C@@H]1O[C@@H](O[C@@H]2O[C@@H](COc3ccccc3)CC3=C2C(=O)c2cc4ccccc4c(O)c2C3=O)C[C@H](NC(=O)C(F)(F)F)[C@@H]1O` [BCH-2057, (1'S,1S,3R)-5,12-dioxo-6-hydroxy-3-phenyloxymethyl-1-(2',3',6'-trideoxy-3'-trifluoroacetamido-L-lyxohexopyranose)-3,4,5,12-tetrahydroanthraceno-[2,3-c]pyran], the half-inhibitory concentration (IC50) in the assay on LOX (read-out: IC50) was 1490 nM; in the assay with SKVLB (read-out: IC50), 5160 nM; with SKOV3 (read-out: IC50), 1030 nM; with HT29 (read-out: IC50), 2690 nM; with T47D (read-out: IC50), 243 nM. Besides, the VLB/OV3 in the assay on SKVLB is 5.01.
`CC(=O)[C@@H]1Cc2c(O)c3c(c(O)c2[C@@H](O[C@@H]2O[C@@H](C)[C@@H](O)[C@@H](NC(=O)C(F)(F)F)C2I)O1)C(=O)c1ccccc1C3=O` (stereo partly drawn) [BCH-2063]: the 50% inhibitory concentration (IC50) with LOX (read-out: IC50) stood at 314 nM; with SKVLB (read-out: IC50), 1940 nM; in the assay on SKOV3 (read-out: IC50), 447 nM; with HT29 (read-out: IC50) it was 2660 nM; in the assay with T47D (read-out: IC50) it was 146 nM. In the assay on SKVLB, the VLB/OV3 is 4.34.
For `CC(=O)[C@H]1CC2=C(C(=O)c3cc4ccccc4c(O)c3C2=O)[C@H](O[C@@H]2O[C@@H](C)[C@@H](O)[C@@H](NC(=O)C(F)(F)F)C2I)O1` (stereo partly drawn) [BCH-2064], the IC50 is 10800 nM in the assay with LOX (read-out: IC50); 3450 nM in the assay on SKVLB (read-out: IC50); 1450 nM in the assay on SKOV3 (read-out: IC50); 440 nM in the assay on HT29 (read-out: IC50); 878 nM in the assay with T47D (read-out: IC50). In addition, the VLB/OV3 with SKVLB is reported as 2.38.
Regarding `CC(=O)[C@@H]1Cc2c(O)c3c(c(O)c2[C@@H](O[C@@H]2O[C@@H](C)[C@@H](O)[C@@H](N)C2I)O1)C(=O)c1ccccc1C3=O` (stereo partly drawn) [BCH-2066, (1'S,1R,3S)-Methyl-(5,12-dihydroxy-1-[2',3',6'-trideoxy-3'-amino-4'hydroxy-2'-iodo-L-lyxohexopyranose]-6,11-dioxo-3,4,6,11-tetrahydroanthraceno-[2,3C]-pyran-3-yl) ketone hydrochloride], the IC50 in the assay with LOX (read-out: IC50) came to 105 nM; in the assay on SKVLB (read-out: IC50), 586 nM; in the assay on SKOV3 (read-out: IC50), 92.7 nM; with HT29 (read-out: IC50), 534 nM; with T47D (read-out: IC50) it was 501 nM. In the assay with SKVLB, the VLB/OV3 is on record as 6.32.
